Laboratory results published in PubChem BioAssay AID1996.
Converted amounts (≈) assume the structure as drawn.

Conditions: buffer; pH 7.4; 200.0 µM

SMILES	solubility kinetic [µg/mL]
O=C(COC(=O)c1ccc(Cl)c(S(=O)(=O)N2CCCC2)c1)NCc1ccccc1	26.1 (≈ 59.7 µM)
Cc1ccc(C)c(S(=O)(=O)N2CCCN(C)CC2)c1	> 42.4
COC(=O)c1ccc(NC(=O)c2cccc(NC(=O)c3ccco3)c2)cc1	< 0.4
O=C(CCCc1ccccc1)Nc1ccc(Br)cc1F	< 0.7
COc1cccc(CC(=O)Nc2ccc(S(=O)(=O)N3CCCCC3)cc2)c1	10.1 (≈ 26 µM)
CNC(=O)c1cccc(NC(=O)C(C)c2ccc3cc(OC)ccc3c2)c1 (stereo not given)	9.2 (≈ 25.4 µM)
CCc1ccc(NC2=NCCCS2)cc1	> 33
COc1ccccc1CC(=O)Nc1ncc(C)s1	8.4 (≈ 32 µM)
CC(=O)NCCc1ccc(C(=O)COC(=O)c2ccco2)cc1	> 47.3
CCOC(=O)c1sc(=NC(=O)c2ccc(OC(C)C)cc2)n(C)c1C	< 0.4
O=C(CSc1ccc2ccccc2n1)c1ccccc1	1.5 (≈ 5.37 µM)
Cc1ccc(N(CC(=O)N2CCOCC2)S(C)(=O)=O)cc1Cl	> 52
CCC(CC)C(=O)c1c[nH]c(C(=O)NCc2ccc(F)cc2)c1	1 (≈ 3.16 µM)
Cc1cccn2c(=O)c3cc(C(=O)N4CCCCC4C)sc3nc12 (stereo not given)	13.1 (≈ 38.4 µM)
Cc1ccc(S(=O)(=O)NCc2ccccn2)c(C)c1	> 41.5
COc1cc([N+](=O)[O-])ccc1NC(=O)CSc1ccccn1	0.5 (≈ 1.57 µM)
COc1ccccc1OCCC(=O)OCC(=O)NCc1ccc(Cl)cc1	3.4 (≈ 9 µM)
COc1ccc(NC(=S)N2CCC(Cc3ccccc3)CC2)cc1OC	2.4 (≈ 6.48 µM)
S=C1NCN(Cc2ccco2)CN1CCc1ccccc1	9.6 (≈ 31.8 µM)
O=C(NCCNC(=O)c1cnccn1)c1cccc(Cl)c1	42.7 (≈ 140 µM)
CC(=O)Oc1ccc(-c2csc(Nc3cccc(C)n3)n2)cc1	< 0.2
N#Cc1ccccc1NC(=O)CN1CCN(Cc2ccccc2)CC1	> 50.2
Cc1nnc(NC(=O)CCNC(=O)c2ccccc2Cl)s1	> 48.7
COC(=O)c1cn(C(=O)c2cccc3ccccc23)c2ccccc12	< 0.7

SMILES	solubility kinetic [µg/mL]
O=C(NC(Cc1c[nH]c2ccccc12)C(=O)O)c1ccc2c(c1)OCO2 (stereo not given)	> 52.9
Cl.ClCCN1CCN(c2ccnc3cc(Cl)ccc23)CC1	> 57.5
CCCCC(=O)Nc1cc(Cl)ccc1C(=O)O	> 38.4
CCn1c(=O)c(C(=O)Nc2ccccc2F)c(O)c2ccccc21	0.4 (≈ 1.23 µM)
COc1ccc(F)cc1S(=O)(=O)NCCCn1ccnc1	> 47
CCOc1nc(C)cc(COC)c1C(N)=O	> 33.6
COC(=O)c1ccc(C)c(NS(=O)(=O)c2cn(C)nc2C)c1	> 48.5
CCOc1ccc(CCNC(=O)c2cnccn2)cc1OCC	> 47.3
C#CCOC(=O)Nc1cnccc1C(F)(F)F	> 36.6
O=C(NC(Cc1ccc(O)cc1)C(=O)O)c1ccco1 (stereo not given)	> 41.3
CSc1ncccc1C(=O)Nc1cc(Cl)ccc1N1CCOCC1	4.4 (≈ 12.1 µM)
Cc1cccc(NC(=O)c2ccc(OCc3c(C)noc3C)cc2)c1C	3.4 (≈ 9.7 µM)
O=C(NC1CCC1)C1CCC(=O)N(Cc2ccccc2F)C1 (stereo not given)	> 45.7
O=C(COc1ccc(S(=O)(=O)NC2CCCCC2)cc1)NC1CC1	> 52.9
N#C/C(=C\c1ccc2c(c1)OCO2)C(N)=S	5.8 (≈ 25 µM)
O=C(O)c1cc(-c2ccc(Cl)cc2)n(-c2ccc(F)cc2)n1	> 47.5
CCN(CC)S(=O)(=O)c1cccc(C(=O)Nc2cc(C)on2)c1	13.4 (≈ 39.7 µM)
Cc1ccc(C(=O)CCC(=O)Nc2ccccc2C)cc1C	< 0.6
CNC(=O)C(C)N1c2cccc3cccc(c23)S1(=O)=O (stereo not given)	34.6 (≈ 119 µM)
COc1cccc(C(=O)Nc2cccnc2)c1OC	> 38.7
O=C(CNC(=O)c1ccc2c(c1)OCO2)Nc1ncccc1O	> 47.3
CCOC(=O)CCCCNC(=O)Nc1ccccc1	> 39.6
CC(C)C(NC(=O)c1ccccc1F)C(=O)Nc1nccs1 (stereo not given)	48.2 (≈ 150 µM)
CC(=O)OC1CCC2(/C=N/O)C(=CCC3C4CCC(=O)C4(C)CCC32)C1 (stereo not given)	> 53.9

SMILES	solubility kinetic [µg/mL]
CS(=O)(=O)N(CC(=O)N1CCCC1)c1cccc(F)c1	44.3 (≈ 147 µM)
COc1ccc(NC(=O)CSc2nc3c(c(-c4cccs4)c2C#N)CN(C)CC3)cc1OC	19.9 (≈ 41.4 µM)
COC(=O)c1sccc1NS(=O)(=O)c1ccccc1	40.5 (≈ 136 µM)
O=C(CCC1CCCCC1)NC1CCCCC1	16.6 (≈ 69.9 µM)
Cc1ccc(C2NCCS2)cc1 (stereo not given)	> 26.9
CC(NC(=O)CN1CCN(Cc2cccc(F)c2)CC1)c1ccccc1 (stereo not given)	> 53.3
Cc1nn(C(=O)N(C)C)c(C)c1CN1C(=O)c2ccccc2C1=O	> 49
Cc1cccc(C(=O)Nc2cccc3c2CCCC3)c1	0.8 (≈ 3.01 µM)
Cc1cc(C(=O)COC(=O)C2=COCCO2)c(C)n1-c1ccccc1	14.9 (≈ 43.6 µM)
O=C(c1cccc(S(=O)(=O)N2CCc3ccccc32)c1)N1CCOCC1	54.8 (≈ 147 µM)
Cc1[nH]c2ccc(C(=O)NCCCN3CCCC3)cc2c1C	> 44.9
CCCC1C(=O)Nc2ccccc2N1C(=O)c1cccc(C)c1 (stereo not given)	> 46.3
Cc1ccc(NC(=O)C2=CC=CN3CCS(=O)(=O)N=C23)cc1	11.6 (≈ 36.6 µM)
O=C(Nc1cccc(S(=O)(=O)N2CCCCC2)c1)C1CC1	> 46.3
O=C(O)C1CCC(=O)N(C2CCCCC2)C1c1ccccc1Cl (stereo not given)	> 50.4
Br.CN1CCN(C(=O)Cc2ccccc2)CC1	> 44.9
COC(=O)c1ccc(OC(=O)c2cnccn2)cc1	> 38.7
Cc1ccc(C(O)c2nc3ccccc3n2C)cc1 (stereo not given)	> 37.8
CC(=O)c1ccc(N2CCN(C(=O)Nc3ccc(C)cc3)CC2)cc1	1.4 (≈ 4.15 µM)
O=C1CSC(=Nc2ccc(Cl)cc2)N1Cc1cccnc1	8.3 (≈ 26.1 µM)
COc1cc(OC)cc(C(=O)NC(C(=O)N2CCC2)C(C)C)c1 (stereo not given)	> 48.1
COc1ccccc1N1CCN(C(=O)c2c(-c3c(F)cccc3Cl)noc2C)CC1	52.9 (≈ 123 µM)
O=C(Nc1ccc(N2CCCC2)cc1)c1cccc(Cl)c1	< 0.3
Cc1ccc([N+](=O)[O-])cc1S(=O)(=O)Nc1cccc(S(=O)(=O)NC2=NCCC2)c1	> 65.8

SMILES	solubility kinetic [µg/mL]
CC(C)(C)C(=O)OCc1nc(-c2ccc3c(c2)OCCO3)cs1	< 0.7
O=C(Cc1cccs1)NC1CCCC1	> 31.4
CC(C)(C)c1ccc(C(=O)NC(=S)N2CCOCC2)cc1	> 46
CCOC(=O)c1oc2nc(CC(C)C)c3c(c2c1N)CCCC3	1.4 (≈ 4.42 µM)
O/N=C(\CN1CCCCC1)c1ccccc1	> 32.7
COc1ccc(/C=C/c2cc(C(F)(F)F)on2)cc1	1.3 (≈ 4.83 µM)
Cc1ccc(OCC(=O)NC(C)c2ccccc2)cc1C (stereo not given)	> 42.5
CCCCn1nc(C(=O)N(C)CC(=O)Nc2ccc(F)c(F)c2F)ccc1=O	> 59.5
COc1ccc(OC)c(/C=C2\SC(N3CCCC(C)C3)=NC2=O)c1 (stereo not given)	22.1 (≈ 63.8 µM)
O=S(=O)(c1ccccc1)N1CCCC1c1cccs1 (stereo not given)	> 44
OC(CNc1nc(C(F)(F)F)nc2ccccc12)c1ccccc1 (stereo not given)	6.3 (≈ 18.9 µM)
COc1cccc(CN2CCN(Cc3ccc(O)cc3)CC2CCO)c1 (stereo not given)	49.2 (≈ 138 µM)
O=C(O)c1cc(-c2ccccc2Cl)n(-c2ccc(F)cc2)n1	> 47.5
FC(F)(F)c1ccc(-n2cnc3ccccc32)nc1	13.5 (≈ 51.3 µM)
Cc1cccc(Oc2ccc3c(c2)cc(C(=O)O)n3C)c1	40.7 (≈ 145 µM)
Cc1noc(C)c1C(=O)OCC(=O)NC1CCCCC1C (stereo not given)	> 44.2
COc1cccc(N2C(=O)c3cccnc3C2O)c1 (stereo not given)	34.4 (≈ 134 µM)
Cc1cc(SCc2ccc(Cl)c(Cl)c2)nc(=O)[nH]1	1.4 (≈ 4.65 µM)
NC(=O)c1[nH]cnc1N	> 18.9
O=c1c2ccc(Cl)cc2nc2n1CC/C2=C\c1cccc(O)c1	2.9 (≈ 8.93 µM)
CSc1ncc(CN2CCN(CCC(C)C)C(CCO)C2)cn1 (stereo not given)	41.7 (≈ 123 µM)
CN(c1ccccc1)c1nc(N)c([N+](=O)[O-])c(NCc2ccccc2)n1	< 0.1
Cc1ccc(NC(=O)COC(=O)C2(CC(=O)NC(C)C)CCCC2)cc1C	3.6 (≈ 9.61 µM)
CCOc1ccccc1NC(=S)NCc1cccn1C	38.5 (≈ 133 µM)

SMILES	solubility kinetic [µg/mL]
Cc1cc(NC(=O)c2coc(=O)c(Br)c2)ccc1C(C)C	2.5 (≈ 7.14 µM)
O=C(NCCN1CCCCC1)Nc1cccc(Cl)c1Cl	< 0.2
CCOC(=O)c1ccoc1CN1CCN(S(=O)(=O)c2ccc(C)c(C)c2)CC1	32.8 (≈ 80.7 µM)
CSc1ncc(Cl)c(C(=O)Nc2ccccc2C)n1	1.3 (≈ 4.43 µM)
FC(F)(F)c1cccc(NC(=S)N2CCCC2)c1	> 41.1
COC(=O)C1Cc2c([nH]c3ccccc23)C(C(C)C)N1 (stereo not given)	33.4 (≈ 123 µM)
O=Cc1cccnc1SCc1ccccc1	15.5 (≈ 67.6 µM)
Cc1nc(C(=O)N2CCCC(Nc3ccc(C)c(C)c3)C2)cs1 (stereo not given)	> 49.4
O=C(N/N=C1\CC2CC=CC12)c1ccc(Br)cc1 (stereo not given)	> 45.8
CC(=O)N1CCN(c2ccc(NC(=O)c3cccc(C)c3)cc2)CC1	7.7 (≈ 22.8 µM)
c1ccc(Cc2nc3ccccc3[nH]2)cc1	> 31.2
Oc1ccccc1-c1nc(NCc2cccnc2)c2ccccc2n1	< 0.2
Br.Nc1ncc([N+](=O)[O-])cc1Br	> 44.8
CCn1nc(C(C)C(=O)O)c2ccccc2c1=O (stereo not given)	> 36.9
CC1(C)SC(=S)N(c2ccccc2)C1/[N+]([O-])=C/c1cccc([N+](=O)[O-])c1 (stereo not given)	6.2 (≈ 16 µM)
COc1ccc(C(=O)C23CN4CN(CN(C4)C2)C3)cc1	> 41
CCN(CC)c1ccc2c(C)c(Cl)c(=O)oc2c1	6.3 (≈ 23.7 µM)
CN(C)c1nc(C#N)nc(N(C)C)n1	22.3 (≈ 116 µM)
COc1ccc(NS(=O)(=O)c2ccc3[nH]c(=O)[nH]c3c2)cc1OC	> 52.4
Cc1ccc(Nc2nc3ccccc3c(=O)[nH]2)cc1C	0.4 (≈ 1.51 µM)
CCOC(=O)Cn1c(=O)c(C#N)cn(C(C)C)c1=O	> 39.8
O=C1Cc2ccccc2C(=O)N1Cc1cccc(Cl)c1	12.2 (≈ 42.7 µM)
O=[N+]([O-])c1cc(CS(=O)(=O)Oc2ccc(Cl)cc2)c(O)c([N+](=O)[O-])c1	> 58.3
O=C(NCc1ccco1)C1CC(=O)N(c2cccc(Cl)c2)C1 (stereo not given)	39.7 (≈ 125 µM)
